Data as given in article PMC2360206 (British Journal of Cancer, 2006).
Entries after “also recorded” stand apart in the source; their conditions may differ.

Experiments:
renal perfusion = assay: MAG3 renogram functional renal imaging; assay type: in vivo, human; settings: one of three patients, 800 mg b.i.d., day 3, reverted to normal by day 14
Procedure: (§1) In an attempt to understand further the pathogenesis of these biochemical toxicities, three patients were studied more intensively. Urinary retinol-binding protein (RBP), a marker of renal tubular damage was measured in conjunction with functional renal imaging (MAG3 renograms) to estimate renal blood flow pretreatment on days 3 and 14. […] This was associated with bilateral increases in renal parenchymal retention on day 3 on MAG3 scans, which reverted to normal by day 14 (see Figure 1). […] There were no consistent changes in urinary RBP in any of these patients (Table 3).

Cdk4 = settings: background statement, no reference given; cited from earlier work
plasma proteins = system: plasma proteins; set-up: method as in Vita et al, 2005; settings: primarily albumin; ref Vita et al, 2005; cited from earlier work
human tumour xenograft = system: human tumour xenograft; set-up: method as in Raynaud et al, 2005; settings: 500 mg kg^−1 p.o. b.i.d., mouse; ref Raynaud et al, 2005; cited from earlier work
[1] = system: Urinary retinol binding protein; assay: Urinary retinol-binding protein, marker of renal tubular damage; assay type: in vivo, human; settings: range 0.10–100.0
Procedure: as §1

[2] = set-up: method as in earlier work; settings: exposure over a 24-h period, preclinical data, ref De la Motte and Gianella-Borradori, 2004, Whittaker et al, Tang et al, 2005; cited from earlier work
malignant solid tumour = assay: Antitumour activity in patients (RECIST); assay type: in vivo, human; settings: for Patients with stable disease after course 2: progressed by course 4
Procedure: (§2) Before commencing treatment, a complete medical history was taken and physical examination was performed. The following pretreatment baseline examinations were performed within 4 weeks of starting treatment: full blood count, including white blood cell differential; reticulocyte count, haptoglobin, prothrombin time and Coombs test; serum biochemistry, including sodium, potassium, urea, creatinine, calcium, phosphorus, creatine kinase and isoenzymes, total protein, albumin, bilirubin (direct and total), alkaline phosphatase (ALP), alanine aminotransferase (ALT), aspartate aminotransferase (AST), γ-glutamyl transferase (γGT), lactate dehydrogenase and uric acid; urinalysis; pregnancy test, electrocardiogram and a chest X-ray. Weekly evaluations included history, physical examination, toxicity assessment according to the CTC criteria version 2.0 and full blood count and serum chemistries. Radiographic assessment of tumour was performed within 3 weeks before the patient starting treatment and after every two cycles, according to standard RECIST methodology. Patients were taken off protocol upon disease progression, unacceptable toxicity, investigator discretion, serious violation of protocol or at their own request, and were followed for 28 days after the last administration of the study drug.

[3] = set-up: method as in Pierga et al, 2003; settings: for 5 days, twice-daily oral schedule; ref Pierga et al, 2003; cited from earlier work
[4] = system: Retinoblastoma phosphorylation and cyclin D1 levels in peripheral blood mononuclear cells; assay: Pharmacodynamics in peripheral blood mononuclear cells (western blot); assay type: in vivo, human; settings: peripheral blood mononuclear cells of patients, first cycle
Procedure: Whole blood was collected from patients at selected time points into lithium–heparin Vacutainer® tubes (Vacutainer, BD, Franklin Lakes, NJ, USA). Each tube was inverted several times to ensure thorough mixing and then mixed with sterile 0.9% saline at a ratio of 1:1. This was then layered over ficol (Lymphoprep® Nycomed, Oslo, Norway) and centrifuged at 1200 r.p.m. (400 g equivalent) at 18°C for 30 min. The resulting mononuclear cell layer was then removed and resuspended in 0.9% NaCl. Cell pellets were obtained by centrifugation (600 g) and flash frozen in liquid nitrogen. Mononuclear cells were then stored at −70°C in labelled cryovials until further analysis.
Cell pellets were treated with lysis buffer (50 mM Tris–HCl, 150 mM NaCl, pH 7.5, 1% NP40, 2 mM PMSF, 10 μg ml^−1 aprotinin, 10 μg ml^−1 leupeptin, 1 mM activated sodium orthovanadate, 1 mM sodium fluoride and 10 mM β-glycerophosphate) for 30 min on ice. Samples (20–100 μg of protein) were heat-denatured in Laemmli sample buffer (10% glycerol, 5% β-mercaptoethanol, 2% sodium dodecyl sulphate (SDS), 62.5 mM Tris (pH 6.8), 0.05% bromphenol blue, final concentrations) and separated by SDS—polyacrylamide gel electrophoresis (PAGE) using pre-cast 10 or 15-well 20 or 10% Tris–glycine polyacrylamide gels (Invitrogen, Netherlands). […]

[5] = Phase I toxicity (NCI CTC v2.0) in patients; assay type: in vivo, human; settings: for No. with grade 3 & 4 ALT increased / No. with grade 3 & 4 AST increased / No. with grade 3 & 4 Alk Phos increase / No. with grade 3 & 4 Anorexia / No. with grade 3 & 4 Bilirubin increase / No. with grade 3 & 4 CKMB increase / No. with grade 3 & 4 Fatigue / No. with grade 3 & 4 Hyperglycaemia / No. with grade 3 & 4 Hypokalemia / No. with grade 3 & 4 Hyponatraemia / No. with grade 3 & 4 Hypotension / No. with grade 3 & 4 Lymphopenia / No. with grade 3 & 4 Rash / No. with grade 3 & 4 adverse events / No. with grade 3 & 4 γ GT increase: first course; for Patients with derangements in liver biochemistry (γGT and ALP elevations): 7-day treatment period
Description: Dose-limiting toxicity (DLT) was defined as drug-related toxicity in the first cycle, including grade 4 neutropenia for 7 days or more, neutropenic fever, platelet count <25 × 10^9 l^−1 and/or non-haematological toxicity⩾grade 3. This definition excluded nausea and vomiting subsequently responding to antiemetic therapy and reversible grade 3 increases in liver transaminases. The maximum tolerated dose (MTD) was defined as a dose below which DLT occurred in more than 30% of the patients. Toxicities were evaluated according to the National Cancer Institute Common Toxicity Criteria, version 2.0.
as §2
In addition, more intensive blood chemistry testing was performed on days 1, 3, 5 and 7.

Cdk6 = settings: background statement, no reference given; cited from earlier work
Cdk8 = settings: background statement, no reference given; cited from earlier work
[6] = same patient, 800 mg b.i.d., course 2

## CC[C@H](CO)Nc1nc(NCc2ccccc2)c2ncn(C(C)C)c2n1 [Seliciclib]
Renal perfusion
  Renal perfusion by MAG3 perfusion indices: reduction in renal perfusion bilaterally
Cdk4
  Inhibition of Cdk4: only a weak inhibitor
Plasma proteins
  Bound to plasma proteins: 90%
Human tumour xenograft
  Effect on growth of a human tumour xenograft: significant growth delay
[1]; Patient 20, Day 3, 800 mg b.i.d.
  Urinary retinol binding protein: 59.2 mg/mol creatinine
[1]; Patient 20, Day 14, 800 mg b.i.d.
  Urinary retinol binding protein: 20.8 mg/mol creatinine
[1]; Patient 21, Day 3, 800 mg b.i.d.
  Urinary retinol binding protein: 44.7 mg/mol creatinine
[1]; Patient 21, Day 14, 800 mg b.i.d.
  Urinary retinol binding protein: 25.7 mg/mol creatinine
[1]; Patient 22, Day 3, 800 mg b.i.d.
  Urinary retinol binding protein: 7.9 mg/mol creatinine
[1]; Patient 22, Day 14, 800 mg b.i.d.
  Urinary retinol binding protein: 40.1 mg/mol creatinine
[2]
  concentration range achieving clinically relevant biological effects: 7.9–30.2 μM
Malignant solid tumour; 100 mg b.i.d.
  Patients with stable disease after course 2: Two of three
Malignant solid tumour; 200 mg b.i.d.
  Patients with stable disease after course 2: two of six
Malignant solid tumour; 800 mg b.i.d.
  Patients with stable disease after course 2: three of 12
Malignant solid tumour; all dose levels
  Objective tumour responses: No objective tumour responses
Malignant solid tumour; all dose levels, 21 treated patients
  Patients with disease stabilisation: eight
Malignant solid tumour; one patient with ovarian cancer, six courses
  Duration of disease stabilisation: 18 weeks
[3]
  Recommended phase II dose: 2500 mg per day
[4]
  Alterations of retinoblastoma phosphorylation and cyclin D1 levels: not demonstrated; also recorded: No reliably detectable alterations
[5]; 100 mg b.i.d, 3 subjects
  No. with grade 3 & 4 ALT increased: 0
  No. with grade 3 & 4 AST increased: 0
  No. with grade 3 & 4 Alk Phos increase: 0
  No. with grade 3 & 4 Anorexia: 0
  No. with grade 3 & 4 Bilirubin increase: 0
  No. with grade 3 & 4 CKMB increase: 0
  No. with grade 3 & 4 Fatigue: 0
  No. with grade 3 & 4 Hyperglycaemia: 0
  No. with grade 3 & 4 Hypokalemia: 0
  No. with grade 3 & 4 Hyponatraemia: 0
  No. with grade 3 & 4 Hypotension: 0
  No. with grade 3 & 4 Lymphopenia: 0
  No. with grade 3 & 4 Rash: 0
  No. with grade 3 & 4 adverse events: 0
  No. with grade 3 & 4 γ GT increase: 0
[5]; 100 mg b.i.d., three patients
  Toxicity at the 100 mg dose level: No significant toxicity
[5]; 200 mg b.i.d, 6 subjects
  No. with grade 3 & 4 ALT increased: 1
  No. with grade 3 & 4 AST increased: 1
  No. with grade 3 & 4 Alk Phos increase: 1
  No. with grade 3 & 4 Anorexia: 0
  No. with grade 3 & 4 Bilirubin increase: 1
  No. with grade 3 & 4 CKMB increase: 1
  No. with grade 3 & 4 Fatigue: 0
  No. with grade 3 & 4 Hyperglycaemia: 0
  No. with grade 3 & 4 Hypokalemia: 0
  No. with grade 3 & 4 Hyponatraemia: 0
  No. with grade 3 & 4 Hypotension: 0
  No. with grade 3 & 4 Lymphopenia: 0
  No. with grade 3 & 4 Rash: 0
  No. with grade 3 & 4 adverse events: 2
  No. with grade 3 & 4 γ GT increase: 1
[5]; 200 mg b.i.d.
  Patients with derangements in liver biochemistry (γGT and ALP elevations): 4 out of 6
[5]; 800 mg b.i.d, 12 subjects
  No. with grade 3 & 4 ALT increased: 0
  No. with grade 3 & 4 AST increased: 0
  No. with grade 3 & 4 Alk Phos increase: 0
  No. with grade 3 & 4 Anorexia: 1
  No. with grade 3 & 4 Bilirubin increase: 0
  No. with grade 3 & 4 CKMB increase: 0
  No. with grade 3 & 4 Fatigue: 1
  No. with grade 3 & 4 Hyperglycaemia: 1
  No. with grade 3 & 4 Hypokalemia: 3
  No. with grade 3 & 4 Hyponatraemia: 1
  No. with grade 3 & 4 Hypotension: 1
  No. with grade 3 & 4 Lymphopenia: 1
  No. with grade 3 & 4 Rash: 1
  No. with grade 3 & 4 adverse events: 7
  No. with grade 3 & 4 γ GT increase: 3
[5]; 800 mg b.i.d.
  Patients with hypokalaemia (<3.0 mmol l^−1): five of 12
  Patients with seliciclib-induced hyperglycaemia: five and five of 12
  Patients with derangements in liver biochemistry (γGT and ALP elevations): 10 out of 12
[5]; 800 mg b.i.d. p.o., 7 days every 21 days
  Dose-limiting toxicities: grade 3 fatigue, grade 3 skin rash, grade 3 hyponatraemia and grade 4 hypokalaemia
[5]; 800 mg b.i.d., 12 patients
  Patients with grade 1 hypokalaemia: two
  Patients with grade 3 hypokalaemia: two
  Patients with grade 4 hypokalaemia: one
[5]; 800 mg dose level, not dose-limiting
  Patients who experienced nausea: 11 of the 12
[5]; all dose levels
  Overall haematological toxicity: mild
[5]; final six patients treated at 800 mg
  Patients with seliciclib-related DLTs: Four of the final six
[5]; one patient, 800 mg b.i.d., day 7 of course 1
  Serum potassium (lowest level): 2.2 mmol/L
[5]; [6]
  Blood pressure (hypotension): 82/52
  Serum potassium nadir: 2.5 mmol/L
  Serum sodium (hyponatraemia): 127 mmol/L
[5]; same patient, 800 mg b.i.d., course 2, normal range <110
  Creatinine: 130 µmol/L
Cdk6
  Inhibition of Cdk6: only a weak inhibitor
Cdk8
  Inhibition of Cdk8: only a weak inhibitor
